Reference: PubChem BioAssay AID504479 (NMMLSC, 2011)
Calls of active or inactive are those of the source.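 The calls were made as follows: active = GFP ratio vs DMSO below 0.65 in a strain, using the primary screen cutoff set for that strain's protein target; inactive = the rest.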

Tests used:
Experiment in all cases: GFP reporter expression in TORC1-bypass yeast, mechanism study for yeast TOR pathway modulator project, S. cerevisiae, TORC1 bypass vs wild-type strains (AID 504479)
Conditions in all cases: fluorescence ratio vs DMSO, at 10 µM
[1] = tested on: YNL142W
[2] = tested on: YCL025C
[3] = tested on: YBR084C-A
[4] = tested on: BY4741
[5] = tested on: YKL103C
[6] = tested on: YCR005C
[7] = MEP2-GFP in TORC1 bypass strain, stronger effect = higher value
[8] = AGP1-GFP in TORC1 bypass strain, stronger effect = higher value
[9] = RPL19A-GFP in TORC1 bypass strain, stronger effect = lower value
[10] = LAP4-GFP in TORC1 bypass strain, stronger effect = higher value
[11] = CIT2-GFP in TORC1 bypass strain, stronger effect = higher value

SMILES | GFP ratio vs DMSO [1, 7] | GFP ratio vs DMSO [1] | GFP ratio vs DMSO [2, 8] | GFP ratio vs DMSO [2] | GFP ratio vs DMSO [3, 9] | GFP ratio vs DMSO [3] | GFP ratio vs DMSO [4] | GFP ratio vs DMSO [5, 10] | GFP ratio vs DMSO [5] | GFP ratio vs DMSO [6, 11] | GFP ratio vs DMSO [6]
O=C(Oc1c(Cl)cc(Cl)c2cccnc12)c1ccco1 | 0.959 | 1.07 (inactive) | 0.699 | 0.897 (inactive) | 1.29 | 1.31 (inactive) | 1.18 (inactive) | 1.19 | 1.78 | 0.81 | 0.971 (inactive)
Cc1ccc(/C=C2/C(=O)ON=C2c2ccccc2)o1 | 1.21 | 1.23 (inactive) | 0.642 | 0.87 (inactive) | 0.962 | 1 (inactive) | 0.941 (inactive) | 1.15 | 1.99 | 0.898 | 1.23 (inactive)
CCCCC(=O)NNC(=S)NC(=O)c1ccc(C)cc1 | 1.24 | 1.22 (inactive) | 0.974 | 1.1 (inactive) | 1.34 | 1.27 (inactive) | 1.56 (inactive) | 2.03 | 3.37 | 0.942 | 1.17 (inactive)
O=C(OCn1ncc(Br)c(Br)c1=O)c1c(F)cccc1F | 0.876 | 0.897 (inactive) | 0.715 | 0.903 (inactive) | 1.05 | 1 (inactive) | 0.824 (inactive) | 1.37 | 1.86 | 0.891 | 1.02 (inactive)
CN1CCN(C(c2ccc(C(F)(F)F)cc2)c2ccc3cccnc3c2O)CC1 (stereo unspecified) | 0.978 | 0.993 (inactive) | 0.842 | 0.994 (inactive) | 0.96 | 0.85 (inactive) | 0.792 (inactive) | 1.29 | 1.58 | 0.633 | 0.641 (inactive)
CCOC(=O)c1c(C)oc2c1c(C(c1cccnc1)N1CCOCC1)c(O)c1ccccc12 (stereo unspecified) | 1.08 | 1.27 (inactive) | 0.642 | 0.972 (inactive) | 1.1 | 0.914 (inactive) | 1.09 (inactive) | 1.21 | 2.09 | 0.839 | 1.12 (inactive)
O=C(OCC(=O)N1CCN(C(=O)c2ccco2)CC1)c1cc(-c2cccc(Br)c2)nc2ccccc12 | 1.01 | 1.09 (inactive) | 1.08 | 1.2 (inactive) | 0.991 | 0.79 (inactive) | 0.833 (inactive) | 0.965 | 1.37 (inactive) | 0.954 | 1.19 (inactive)
CCSc1nnc(NC(=O)c2ccccn2)s1 | 1.06 | 1.01 (inactive) | 0.987 | 0.979 (inactive) | 0.97 | 0.972 (inactive) | 0.875 (inactive) | 1.14 | 1.2 (inactive) | 0.867 | 0.907 (inactive)
O=[N+]([O-])c1cc(S(=O)(=O)C(F)(F)F)ccc1Sc1nc2ccccc2s1 | 0.92 | 0.887 (inactive) | 0.722 | 0.876 (inactive) | 0.993 | 0.985 (inactive) | 0.811 (inactive) | 1.22 | 1.71 | 0.848 | 0.985 (inactive)
O=[N+]([O-])c1cc(Cl)c2cccnc2c1O | 0.964 | 0.937 (inactive) | 0.738 | 0.999 (inactive) | 0.937 | 1.04 (inactive) | 0.755 (inactive) | 1.17 | 1.52 | 0.67 | 0.937 (inactive)
O=[N+]([O-])c1cc(O)c2ncccc2c1 | 0.918 | 0.698 (inactive) | 0.739 | 0.763 (inactive) | 0.993 | 1.01 (inactive) | 1.5 (inactive) | 1.29 | 1.4 (inactive) | 0.869 | 0.806 (inactive)
O=C(OCn1ncc(Br)c(Br)c1=O)c1ccc(F)cc1 | 0.918 | 1.03 (inactive) | 0.766 | 1.02 (inactive) | 1.06 | 1.03 (inactive) | 0.853 (inactive) | 1.67 | 2.44 | 0.803 | 1.06 (inactive)
C/C(=N\NC(=O)c1ccc(C(C)(C)C)cc1)c1ccccn1 | 0.969 | 0.804 (inactive) | 0.884 | 0.896 (inactive) | 0.974 | 1.03 (inactive) | 1.12 (inactive) | 0.982 | 1.13 (inactive) | 0.847 | 0.835 (inactive)
Cc1ccc(C(=O)NNC(=S)NC(=O)COc2ccccc2)cc1 | 1.25 | 1.22 (inactive) | 0.914 | 1.11 (inactive) | 1.22 | 1.27 (inactive) | 1.29 (inactive) | 1.45 | 2.49 | 0.861 | 0.988 (inactive)
CC(=O)c1ccc(N2CCN(C(=O)c3ccc(Br)cc3)CC2)c(F)c1 | 1.25 | 1.3 (inactive) | 1.42 | 1.17 (inactive) | 1.33 | 1.28 (inactive) | 1.18 (inactive) | 1.27 | 1.94 | 1.12 | 1.85
O=C1ON=C(c2ccccc2)/C1=C/c1ccco1 | 1.01 | 1.03 (inactive) | 0.65 | 0.853 (inactive) | 0.972 | 0.965 (inactive) | 0.912 (inactive) | 1.17 | 1.64 | 0.825 | 1.34 (inactive)
O=C1ON=C(c2ccccc2)/C1=C\c1ccco1 | 0.993 | 1.1 (inactive) | 0.759 | 1.01 (inactive) | 0.897 | 0.947 (inactive) | 0.875 (inactive) | 1.26 | 1.97 | 0.826 | 1.1 (inactive)
c1ccc(-c2cccc(-c3ccccn3)n2)nc1 | 1 | 0.847 (inactive) | 0.927 | 0.984 (inactive) | 0.963 | 0.926 (inactive) | 0.833 (inactive) | 1.2 | 1.5 | 0.688 | 0.683 (inactive)
CC(=O)SC(C[N+](=O)[O-])c1cn(C(C)=O)c2ccccc12 (stereo unspecified) | 0.918 | 0.743 (inactive) | 0.739 | 0.805 (inactive) | 1.04 | 1.18 (inactive) | 0.941 (inactive) | 1.4 | 1.8 | 0.839 | 0.9 (inactive)
CCc1ccc(OCC(=O)NNC(=S)NC(=O)C2CC2)c(Br)c1 | 1.13 | 1.23 (inactive) | 0.819 | 1.1 (inactive) | 1.03 | 1.15 (inactive) | 1.41 (inactive) | 1.3 | 2.76 | 0.796 | 0.882 (inactive)
Cc1ccc(S(=O)(=O)c2ncccc2[N+](=O)[O-])cc1 | 1.01 | 0.788 (inactive) | 0.888 | 0.84 (inactive) | 0.99 | 1.04 (inactive) | 1.09 (inactive) | 1.5 | 1.82 | 0.847 | 0.688 (inactive)
